Publication PMC10120535, “Identification of new 4-(6-oxopyridazin-1-yl)benzenesulfonamides as multi-target anti-inflammatory agents targeting carbonic anhydrase, COX-2 and 5-LOX enzymes: synthesis, biological evaluations and modelling insights” (Journal of Enzyme Inhibition and Medicinal Chemistry, 2023)

Key:
5-LOX = experiment: LOX inhibitory screening assay kit; type: biochemical; conditions: mean from 3 different assays
COX-1 = target: T1, COX-1 (Ovis aries, UniProt P05979); experiment: COX Inhibitor screening ELISA assay kit, COX-1
T1 sequence (P05979 25-600): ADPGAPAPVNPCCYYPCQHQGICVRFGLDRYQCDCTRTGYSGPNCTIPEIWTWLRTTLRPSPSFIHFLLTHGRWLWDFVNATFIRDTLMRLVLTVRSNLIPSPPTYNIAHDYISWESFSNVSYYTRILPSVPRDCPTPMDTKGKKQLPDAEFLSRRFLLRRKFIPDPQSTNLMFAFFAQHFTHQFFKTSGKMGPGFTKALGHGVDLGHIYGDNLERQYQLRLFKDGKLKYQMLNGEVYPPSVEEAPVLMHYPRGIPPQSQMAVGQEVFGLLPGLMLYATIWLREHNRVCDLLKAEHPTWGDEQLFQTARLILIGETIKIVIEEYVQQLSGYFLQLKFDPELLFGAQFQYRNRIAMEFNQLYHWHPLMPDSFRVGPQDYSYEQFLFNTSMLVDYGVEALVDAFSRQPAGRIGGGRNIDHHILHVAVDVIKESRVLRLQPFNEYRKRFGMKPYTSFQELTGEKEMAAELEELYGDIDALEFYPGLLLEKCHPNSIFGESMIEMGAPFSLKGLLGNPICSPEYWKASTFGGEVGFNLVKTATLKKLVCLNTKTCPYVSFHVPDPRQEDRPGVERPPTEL

COX-2 = target: T2, COX-2 (Homo sapiens, UniProt P35354); experiment: COX Inhibitor screening ELISA assay kit, COX-2
T2 sequence (P35354 18-604): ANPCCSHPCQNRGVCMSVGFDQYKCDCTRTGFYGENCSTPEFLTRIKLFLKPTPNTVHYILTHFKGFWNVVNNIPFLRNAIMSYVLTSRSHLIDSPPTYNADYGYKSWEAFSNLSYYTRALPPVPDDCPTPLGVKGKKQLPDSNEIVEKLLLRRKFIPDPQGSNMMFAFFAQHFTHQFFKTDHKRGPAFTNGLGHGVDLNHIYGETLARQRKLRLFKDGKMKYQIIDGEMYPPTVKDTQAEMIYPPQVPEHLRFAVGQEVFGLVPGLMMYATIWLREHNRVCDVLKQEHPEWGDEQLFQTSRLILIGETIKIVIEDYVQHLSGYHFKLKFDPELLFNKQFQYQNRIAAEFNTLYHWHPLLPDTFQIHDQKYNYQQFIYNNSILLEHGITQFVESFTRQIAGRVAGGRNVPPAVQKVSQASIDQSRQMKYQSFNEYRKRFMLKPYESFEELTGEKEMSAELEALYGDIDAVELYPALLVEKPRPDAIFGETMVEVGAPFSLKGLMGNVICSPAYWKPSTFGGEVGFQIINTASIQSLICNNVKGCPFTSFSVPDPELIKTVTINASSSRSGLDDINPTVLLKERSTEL

mice = experiment: acetic acid writhing test (analgesic activity); type: in vivo; conditions: for Number of writhing (20 min) (Mean ± SD): n = 5, control 40 ± 2.9
Source text: (§1) The experimental procedures adopted to perform the acetic acid-induced writhing assay for the analgesic activities,[45] Paw edoema assay for the anti-inflammatory activities,[46] as well as the acute ulcerogenic test[47] have been carried out as described previously.

rat paw edoema = experiment: carrageen-induced rat paw edoema assay (anti-inflammatory activity); type: in vivo; design: Anti-inflammatory activity (% inhibition of edoema) 3 h: concentration or dose not given beside the values; conditions: for FIF% change in paw height (Mean ± SD) 0 h / FIF% change in paw height (Mean ± SD) 1 h / FIF% change in paw height (Mean ± SD) 2 h / FIF% change in paw height (Mean ± SD) 3 h: n = 5
Source text: as §1

gastric tissue of rats = experiment: acute ulcerogenic test, histopathology of gastric tissue; type: in vivo; conditions: fasted rat stomach, H & E stain
Source text: as §1

TNF-α = experiment: serum TNF-α level by ELISA after paw edoema test; type: in vivo, rat; conditions: compared to the positive control group, n = 5
Source text: (§2) ELISA assays were used to assess the serum level for the inflammatory mediators TNF-α (Kit Cat. No MBS355371, MyBioSource, USA), and IL-1β (Kit Cat. No MBS8825017, MyBioSource, USA) based on the manufacture instructions.[54]

IL-1β = experiment: serum IL-1β level by ELISA after paw edoema test; type: in vivo, rat; conditions: compared to the positive control group, n = 5
Source text: as §2

Row | Compound | IC50 (5-LOX) | IC50 (COX-1) | IC50 (COX-2) | Analgesic activity (% protection) (mice) | Number of writhing (20 min) (Mean ± SD) (mice) | FIF% change in paw height (Mean ± SD) 0 h (rat paw edoema) | FIF% change in paw height (Mean ± SD) 1 h (rat paw edoema) | FIF% change in paw height (Mean ± SD) 2 h (rat paw edoema) | Anti-inflammatory activity (% inhibition of edoema) 3 h (rat paw edoema) | FIF% change in paw height (Mean ± SD) 3 h (rat paw edoema) | Ulcerogenic effect on gastric tissue (histopathological examination) (gastric tissue of rats) | Serum level of TNF-α (TNF-α) | Serum level of IL-1β (IL-1β)
1 | NS(=O)(=O)c1ccc(-n2nc(OCc3ccc([N+](=O)[O-])cc3)ccc2=O)cc1 [Compound 5b, 4–(3-((4-Nitrobenzyl)oxy)-6-oxopyridazin-1(6H)-yl)benzenesulfonamide] | 5 µM | 9.5 µM | 0.14 µM | – | – | – | – | – | – | – | – | – | –
2 | Cc1ccc(-c2cc(C(F)(F)F)nn2-c2ccc(S(N)(=O)=O)cc2)cc1 [Celecoxib, reference compound] | – | – | – | 60.0% | 16 ± 0.9 | 0.5 ± 0.07% | 0.44 ± 0.09% | 0.52 ± 0.04% | 38.5% | 0.48 ± 0.04 % | normal texture | – | –
3 | O=C(O)Cc1ccccc1Nc1c(Cl)cccc1Cl [Diclofenac, reference compound] | – | – | – | 70.0% | 12 ± 1.9 | 0.52 ± 0.04% | 0.28 ± 0.04% | 0.32 ± 0.04% | 59% | 0.32 ± 0.04 % | inflammation and damage to the layers of the stomach | – | –
4 | N#Cc1ccc(COc2ccc(=O)n(-c3ccc(S(N)(=O)=O)cc3)n2)cc1 [Compound 5c, 4–(3-((4-Cyanobenzyl)oxy)-6-oxopyridazin-1(6H)-yl)benzenesulfonamide] | 7 µM | 6.5 µM | 0.07 µM | – | – | – | – | – | – | – | – | – | –
5 | NS(=O)(=O)c1ccc(-n2nc(OS(=O)(=O)c3ccc(F)cc3)ccc2=O)cc1 [Compound 7f, 6-Oxo-1–(4-sulfamoylphenyl)-1,6-dihydropyridazin-3-yl 4-fluorobenzenesulfonate] | 6.5 µM | 8.5 µM | 0.11 µM | – | – | – | – | – | – | – | – | – | –
7 | NS(=O)(=O)c1ccc(-n2nc(OCc3ccccc3)ccc2=O)cc1 [Compound 5a, 4–(3-(Benzyloxy)-6-oxopyridazin-1(6H)-yl)benzenesulfonamide] | 7 µM | 5 µM | 0.11 µM | – | – | – | – | – | – | – | – | – | –

Second part, led by results:

Row | IC50 (5-LOX) | IC50 (COX-1) | IC50 (COX-2) | Compound | Analgesic activity (% protection) (mice) | Number of writhing (20 min) (Mean ± SD) (mice) | FIF% change in paw height (Mean ± SD) 0 h (rat paw edoema) | FIF% change in paw height (Mean ± SD) 1 h (rat paw edoema) | FIF% change in paw height (Mean ± SD) 2 h (rat paw edoema) | Anti-inflammatory activity (% inhibition of edoema) 3 h (rat paw edoema) | FIF% change in paw height (Mean ± SD) 3 h (rat paw edoema) | Ulcerogenic effect on gastric tissue (histopathological examination) (gastric tissue of rats) | Serum level of TNF-α (TNF-α) | Serum level of IL-1β (IL-1β)
8 | 5 µM | 6.5 µM | 0.09 µM | COc1ccc(S(=O)(=O)Oc2ccc(=O)n(-c3ccc(S(N)(=O)=O)cc3)n2)cc1 [Compound 7e, 6-Oxo-1–(4-sulfamoylphenyl)-1,6-dihydropyridazin-3-yl 4-methoxybenzenesulfonate] | – | – | – | – | – | – | – | – | – | –
9 | 3.5 µM | 8.4 µM | 0.08 µM | Cc1ccc(S(=O)(=O)Oc2ccc(=O)n(-c3ccc(S(N)(=O)=O)cc3)n2)cc1 [Compound 7d, 6-Oxo-1–(4-sulfamoylphenyl)-1,6-dihydropyridazin-3-yl 4-methylbenzenesulfonate] | – | – | – | – | – | – | – | – | – | –
10 | 4 µM | 8.4 µM | 0.08 µM | NS(=O)(=O)c1ccc(-n2nc(OS(=O)(=O)c3ccccc3)ccc2=O)cc1 [Compound 7c, 6-Oxo-1–(4-sulfamoylphenyl)-1,6-dihydropyridazin-3-yl benzenesulfonate] | – | – | – | – | – | – | – | – | – | –
11 | 2 µM | 11.5 µM | 0.07 µM | NS(=O)(=O)c1ccc(-n2nc(O)ccc2=O)cc1 [Compound 3, 4–(3-Hydroxy-6-oxopyridazin-1(6H)-yl)benzenesulfonamide] | – | – | – | – | – | – | – | – | – | –
12 | 2.5 µM | 12.6 µM | 0.06 µM | CCS(=O)(=O)Oc1ccc(=O)n(-c2ccc(S(N)(=O)=O)cc2)n1 [Compound 7b, 6-Oxo-1–(4-sulfamoylphenyl)-1,6-dihydropyridazin-3-yl ethanesulfonate] | 65.0% | – | 0.5 ± 0.07% | 0.44 ± 0.09% | 0.58 ± 0.04% | 38.5% | 0.48 ± 0.03 % | mild inflammation | significantly lowered | significantly lowered
13 | 3 µM | 10.4 µM | – | CS(=O)(=O)Oc1ccc(=O)n(-c2ccc(S(N)(=O)=O)cc2)n1 [Compound 7a, 6-Oxo-1–(4-sulfamoylphenyl)-1,6-dihydropyridazin-3-yl methanesulfonate] | 67.5% | – | 0.52 ± 0.04% | 0.46 ± 0.09% | 0.44 ± 0.05% | 56% | 0.34 ± 0.05 % | normal texture | significantly lowered | significantly lowered
